# Source: patent US20170291905A1, “ARGININE […] INHIBITORS AND USES THEREOF” (Epizyme, Inc., priority 2014, published 2017)
# pIC50: −log10 of the molar value.
# Target: T1, full-length human PRMT1 isoform 1 (GST-tagged) (Homo sapiens, UniProt Q99873)
# T1 construct: GST-tagged PRMT1 was eluted with 50 mM Tris, 2 mM glutathione, pH 7.8, dialysed in buffer A and concentrated; made in house; host or cells: High Five insect cells (baculovirus)
# Test: PRMT1 biochemical assay (3H-SAM Flashplate, histone H4 36-50 peptide)
# Details: 0.5 nM PRMT1, 30 min preincubation, 20 nM peptide
# How it was run: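 GST-PRMT1 (0.5 nM) preincubated 30 min at room temperature with compound in bicine buffer pH 7.6. Reaction then run with 200 nM 3H-SAM plus 1.5 uM SAM and 20 nM biotinylated H4 36-50 peptide, 2% DMSO. Stopped with excess cold SAM, and methylated peptide captured on streptavidin Flashplates for counting; % inhibition versus DMSO and 1 mM SAH controls, 3- or 4-parameter fit.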
# T1 sequence (Q99873 with tags, fused parts or gaps): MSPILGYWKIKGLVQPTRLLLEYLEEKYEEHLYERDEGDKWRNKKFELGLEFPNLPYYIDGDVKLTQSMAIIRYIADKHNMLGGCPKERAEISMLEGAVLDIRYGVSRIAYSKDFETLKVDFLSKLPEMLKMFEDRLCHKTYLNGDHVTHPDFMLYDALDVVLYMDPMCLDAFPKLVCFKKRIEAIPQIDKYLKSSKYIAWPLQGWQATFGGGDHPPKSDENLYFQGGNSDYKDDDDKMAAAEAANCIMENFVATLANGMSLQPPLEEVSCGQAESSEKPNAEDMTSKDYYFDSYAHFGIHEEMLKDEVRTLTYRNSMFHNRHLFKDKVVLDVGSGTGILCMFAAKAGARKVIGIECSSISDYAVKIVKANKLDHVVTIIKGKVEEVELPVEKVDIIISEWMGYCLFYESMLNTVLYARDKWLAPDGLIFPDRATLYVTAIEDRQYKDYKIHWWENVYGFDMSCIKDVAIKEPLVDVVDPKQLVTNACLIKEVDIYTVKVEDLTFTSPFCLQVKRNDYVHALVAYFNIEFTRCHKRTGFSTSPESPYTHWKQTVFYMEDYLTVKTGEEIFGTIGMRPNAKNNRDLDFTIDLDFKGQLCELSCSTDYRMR
row,SMILES,pIC50
1,CC[C@H]1CC[C@@H](c2n[nH]cc2CN(C)CCNC)CC1 [compound 1],8.32
2,"CN(C)CCN(C)Cc1c[nH]nc1[C@H]1CC[C@@]2(CC1)CC(C)(C)CO2 [compound 42, N1-((3-((5S,8S)-3,3-dimethyl-1-oxaspiro[4.5]decan-8-yl)-1H-pyrazol-4-yl)methyl)-N1,N2,N2-trimethylethane-1,2-diamine]",7.50
3,"CN(C)CCN(C)Cc1c[nH]nc1[C@H]1CC[C@]2(CC1)CC(C)(C)CO2 [compound 43, N1-((3-((5r,8r)-3,3-dimethyl-1-oxaspiro[4.5]decan-8-yl)-1H-pyrazol-4-yl)methyl)-N1,N2,N2-trimethylethane-1,2-diamine]",7.24
4,"CNCCN(C)Cc1c[nH]nc1C1=CCC2(CC1)CC(C)(C)CO2 (stereo not drawn) [compound 46, N1-((3-(3,3-dimethyl-1-oxaspiro[4.5]dec-7-en-8-yl)-1H-pyrazol-4-yl)methyl)-N1,N2-dimethylethane-1,2-diamine]",7.70
5,"CCC1(CC)C[C@]2(CC[C@H](c3n[nH]cc3CN(C)CCNC)CC2)NC1=O [compound 47, (5s,8s)-3,3-diethyl-8-(4-((methyl(2-(methylamino)ethyl)amino)methyl)-1H-pyrazol-3-yl)-1-azaspiro[4.5]decan-2-one]",7.82
6,"CCC1(CC)C[C@]2(CC[C@@H](c3n[nH]cc3CN(C)CCNC)CC2)NC1=O [compound 48, (5r,8r)-3,3-diethyl-8-(4-((methyl(2-(methylamino)ethyl)amino)methyl)-1H-pyrazol-3-yl)-1-azaspiro[4.5]decan-2-one]",7.45
7,"CNCCN(C)Cc1ccnn1[C@H]1CC[C@@]2(CC1)CC(C)(C)CO2 [compound 49, N1-((1-((5s,8s)-3,3-dimethyl-1-oxaspiro[4.5]decan-8-yl)-1H-pyrazol-5-yl)methyl)-N1,N2-dimethylethane-1,2-diamine]",7.71

# Next, values leading:
row,pIC50,SMILES
1,7.51,"CCOCCOCC1(COCCOCC)CCC(c2n[nH]cc2CN(C)CCNC)CC1 [compound 39, N1-((3-(4,4-bis((2-ethoxyethoxy)methyl)cyclohexyl)-1H-pyrazol-4-yl)methyl)-N1,N2-dimethylethane-1,2-diamine]"
2,7.68,CNCCN(C)Cc1c[nH]nc1C1CCC(COCCC2CCOCC2)(COCCC2CCOCC2)CC1 [compound 40]
3,8.36,"CNCCN(C)Cc1c[nH]nc1C1CCC(COCC2CC2)(COCC2CC2)CC1 [compound 41, N1-((3-(4,4-bis((cyclopropylmethoxy)methyl)cyclohexyl)-1H-pyrazol-4-yl)methyl)-N1,N2-dimethylethane-1,2-diamine]"
4,7.67,"CNCCN(C)Cc1c[nH]nc1C1CCC(CO)(CO)CC1 [compound 44, (4-(4-((methyl(2-(methylamino)ethyl)amino)methyl)-1H-pyrazol-3-yl)cyclohexane-1,1-diyl)dimethanol]"
5,7.48,CNCCN(C)Cc1c[nH]nc1C1CCC(COC)(COCC2CCOCC2)CC1 (stereo not drawn) [compound 45]
